Test results reported in patent US6583155B2, “Method for treating allergies using substituted pyrazoles” (priority 2000, dated 2003).
Entries after “also recorded” stand apart in the source; their conditions may differ.

Legend:
[1] = tested on: human T cells (PBMC from allergic donors) stimulated with ragweed extracts; test: Ex vivo human T cell-proliferation assay, ragweed allergen extracts; details: PBMC from allergy donors, 7 days culture, 3H-thymidine incorporation
[2] = tested on: human T cells (PBMC from allergic donors) stimulated with house dust mite extracts; test: Ex vivo human T cell-proliferation assay, house dust mite allergen extracts
[3] = tested on: human T cells (PBMC) stimulated with ConA; test: Ex vivo human T cell-proliferation assay, ConA (pan-T cell mitogen) control; details: pan-T cell mitogen specificity control
[4] = tested on: invariant chain (li) degradation in PBMC from human blood; test: Monitoring cathepsin S inhibition in human blood: p10li fragment by Western blot; details: incubation for 24 h, SDS-PAGE / Western blot

Row | SMILES | T cell proliferative responses to ragweed extracts (short and giant) [1] | T cell proliferative responses to Der f extract ([2]; PBMC from an allergy donor, titrated doses of compound, 7 days, 3H-thymidine incorporation (FIG. 3)) | T cell proliferative responses induced by ConA [3] | T cell proliferative responses to house dust mite extracts (Der p and Der f) ([2]; PBMC from allergy donors, 7 days culture, 3H-thymidine incorporation) | p10li fragment of invariant chain (block in degradation of li) [4]
1 | CS(=O)(=O)N1CCc2c(c(-c3ccc(Br)cc3)nn2CC(O)CN2CCC(n3c(=O)[nH]c4ccc(Cl)cc43)CC2)C1 (stereo not shown) [Example 8, 1-(1-{3-[3-(4-Bromo-phenyl)-5-methanesulfonyl-4,5,6,7-tetrahydro-pyrazolo[4,3-c]pyridin-1-yl]-2-hydroxy-propyl}-piperidin-4-yl)-6-chloro-1,3-dihydro-benzoimidazol-2-one] | inhibition | inhibition |  |  | 
2 | Cc1cc(-c2nn(CC(O)CN3CCC(n4c(=O)[nH]c5ccc(Cl)cc54)CC3)c3c2CN(S(C)(=O)=O)CC3)ccc1Cl (stereo not shown) [Example 53, 6-Chloro-1-(1-{3-[3-(4-chloro-3-methyl-phenyl)-5-methanesulfonyl-4,5,6,7-tetrahydro-pyrazolo[4,3-c]pyridin-1-yl]-2-hydroxy-propyl}-piperidin4-yl)-1,3-dihydro-benzoimidazol-2-one] | inhibition |  |  |  | 
3 | CC(C)C[C@H](NC(=O)N1CCOCC1)C(=O)N[C@H](/C=C/S(=O)(=O)c1ccccc1)CCc1ccccc1 [LHVS, 4-morpholinecarboxamide, N-[(1S)-3-methyl-1-[[[(1S, 2E)-1-(2-phenylethyl)-3-(phenylsulfonyl)-2-propenyl]amino]carbonyl]butyl]-] | strongly inhibited; also recorded: inhibition |  | not affected | strongly inhibited; also recorded: inhibition | the p10li fragment was seen
